Among the data in US8975398B2, “NAMPT inhibitors” (AbbVie Inc., priority 2012, dated 2015) are IC50 values, retold here.

The experiment deals with PC3 cells. The experiment can be described thus: NAMPT Cell Proliferation Assay (Cell Titer Glo; also performed in the presence of 0.3 mM nicotinamide mononucleotide). It counts as cell-based. The conditions noted are these: Homo sapiens, PC-3, 120 h, 5 days incubation, cell viability by Cell Titer Glo. Summed up: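 Cell Titer Glo viability after 5-day exposure (37° C, 5% CO2); PC3, 500 cells/well, RPMI + 10% heat-inactivated FBS, overnight attachment before dosing. Dose range 10 μM to 1×10^−5 μM, 10-fold steps. IC50 = sigmoidal fit of % inhibition.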
(In ATP-based viability assays light output follows the ATP content of the culture.)

A word on the IC50: it is the concentration that inhibits the measured activity by half. For `O=C(NC1(C2CC2)CC1)c1ccc(NC(=O)C2CN(c3cccnn3)C2)cc1` [Example 983, N-{4-[1,1′-bi(cyclopropyl)-1-ylcarbamoyl]phenyl}-1-(pyridazin-3-yl)azetidine-3-carboxamide], the IC50 was determined as 604 nM.

In the case of `O=C(Nc1ccsc1)c1ccc(NC(=O)C2CN(c3cccnn3)C2)cc1` [Example 984, 1-(pyridazin-3-yl)-N-[4-(thiophen-3-ylcarbamoyl)phenyl]azetidine-3-carboxamide], the IC50 worked out at 696 nM.

As for `C[C@@H](NC(=O)c1ccc(NC(=O)C2CN(c3cccnn3)C2)cc1)C1CC1` [Example 985, N-(4-{[(1R)-1-cyclopropylethyl]carbamoyl}phenyl)-1-(pyridazin-3-yl)azetidine-3-carboxamide], the IC50 is 635 nM.

On to `CN1CCC(NC(=O)c2ccc(NC(=O)C3CN(c4cccnn4)C3)cc2)CC1` [Example 986, N-{4-[(1-methylpiperidin-4-yl)carbamoyl]phenyl}-1-(pyridazin-3-yl)azetidine-3-carboxamide], for which the IC50 amounted to 7470 nM.

In the case of `CC[C@@H](C)NC(=O)c1ccc(NC(=O)C2CN(c3cccnn3)C2)cc1` [Example 987, N-{4-[(2R)-butan-2-ylcarbamoyl]phenyl}-1-(pyridazin-3-yl)azetidine-3-carboxamide], the IC50 amounted to 609 nM.

Regarding `O=C(NC1CN2CCC1CC2)c1ccc(NC(=O)C2CN(c3cccnn3)C2)cc1` (stereo not shown) [Example 988, N-[4-(1-azabicyclo[2.2.2]oct-3-ylcarbamoyl)phenyl]-1-(pyridazin-3-yl)azetidine-3-carboxamide], the IC50 stood at 1240 nM.

`O=C(NCC1CCOC1)c1ccc(NC(=O)C2CN(c3cccnn3)C2)cc1` (stereo not shown) [Example 989, 1-(pyridazin-3-yl)-N-{4-[(tetrahydrofuran-3-ylmethyl)carbamoyl]phenyl}azetidine-3-carboxamide]: the IC50 was 602 nM.

Turning to `O=C(NCC1COC1)c1ccc(NC(=O)C2CN(c3cccnn3)C2)cc1` [Example 990, N-{4-[(oxetan-3-ylmethyl)carbamoyl]phenyl}-1-(pyridazin-3-yl)azetidine-3-carboxamide], the IC50 worked out at 6810 nM.

As to `CC1CC1NC(=O)c1ccc(NC(=O)C2CN(c3cccnn3)C2)cc1` (stereo not shown) [Example 991, N-{4-[(2-methylcyclopropyl)carbamoyl]phenyl}-1-(pyridazin-3-yl)azetidine-3-carboxamide], the half-maximal inhibitory concentration (IC50) came out at 760 nM.

For `O=C(NC1CCC1)c1ccc(NC(=O)C2CN(c3cccnn3)C2)cc1` [Example 992, N-[4-(cyclobutylcarbamoyl)phenyl]-1-(pyridazin-3-yl)azetidine-3-carboxamide], the IC50 was 1510 nM.

Regarding `CC1(NC(=O)c2ccc(NC(=O)C3CN(c4cccnn4)C3)cc2)CC1` [Example 993, N-{4-[(1-methylcyclopropyl)carbamoyl]phenyl}-1-(pyridazin-3-yl)azetidine-3-carboxamide], the IC50 amounted to 809 nM.

Regarding `COC(C)(C)CNC(=O)c1ccc(NC(=O)C2CN(c3cccnn3)C2)cc1` [Example 994, N-{4-[(2-methoxy-2-methylpropyl)carbamoyl]phenyl}-1-(pyridazin-3-yl)azetidine-3-carboxamide], the IC50 worked out at 59 nM.

With `O=C(NCC1CC1)c1ccc(NC(=O)C2CN(c3cccnn3)C2)cc1` [Example 995, N-{4-[(cyclopropylmethyl)carbamoyl]phenyl}-1-(pyridazin-3-yl)azetidine-3-carboxamide], the IC50 was 245 nM.

For the compound `O=C(NC[C@H]1CCCO1)c1ccc(NC(=O)C2CN(c3cccnn3)C2)cc1` [Example 996, 1-(pyridazin-3-yl)-N-(4-{[(2R)-tetrahydrofuran-2-ylmethyl]carbamoyl}phenyl)azetidine-3-carboxamide], the IC50 turned out to be 104 nM.

With `O=C(NCCC(F)(F)F)c1ccc(NC(=O)C2CN(c3cccnn3)C2)cc1` [Example 997, 1-(pyridazin-3-yl)-N-{4-[(3,3,3-trifluoropropyl)carbamoyl]phenyl}azetidine-3-carboxamide], the IC50 was 93.5 nM.

With `CN1CCCC(NC(=O)c2ccc(NC(=O)C3CN(c4cccnn4)C3)cc2)C1` (stereo not shown) [Example 998, N-{4-[(1-methylpiperidin-3-yl)carbamoyl]phenyl}-1-(pyridazin-3-yl)azetidine-3-carboxamide], the IC50 was 1280 nM.

With `CC1(CNC(=O)c2ccc(NC(=O)C3CN(c4cccnn4)C3)cc2)COC1` [Example 999, N-(4-{[(3-methyloxetan-3-yl)methyl]carbamoyl}phenyl)-1-(pyridazin-3-yl)azetidine-3-carboxamide], the IC50 came out at 250 nM.

As for `O=C(NC[C@@H]1CCCO1)c1ccc(NC(=O)C2CN(c3cccnn3)C2)cc1` [Example 1000, 1-(pyridazin-3-yl)-N-(4-{[(2S)-tetrahydrofuran-2-ylmethyl]carbamoyl}phenyl)azetidine-3-carboxamide], the IC50 was 77 nM.

In the case of `O=C(NCC1CCOCC1)c1ccc(NC(=O)C2CN(c3cccnn3)C2)cc1` [Example 1001, 1-(pyridazin-3-yl)-N-{4-[(tetrahydro-2H-pyran-4-ylmethyl)carbamoyl]phenyl}azetidine-3-carboxamide], the IC50 was determined as 53.2 nM.

As to `O=C(NC1CCOCC1)c1ccc(NC(=O)C2CN(c3cccnn3)C2)cc1` [Example 1002, 1-(pyridazin-3-yl)-N-[4-(tetrahydro-2H-pyran-4-ylcarbamoyl)phenyl]azetidine-3-carboxamide], the 50% inhibitory concentration (IC50) amounted to 911 nM.

Take `CN1CCCC(CNC(=O)c2ccc(NC(=O)C3CN(c4cccnn4)C3)cc2)C1` (stereo not shown) [Example 1003, N-(4-{[(1-methylpiperidin-3-yl)methyl]carbamoyl}phenyl)-1-(pyridazin-3-yl)azetidine-3-carboxamide]: the IC50 came out at 1070 nM.

On to `O=C(NC1CC1)c1ccc(NC(=O)C2CN(c3cccnn3)C2)cc1` [Example 1004, N-[4-(cyclopropylcarbamoyl)phenyl]-1-(pyridazin-3-yl)azetidine-3-carboxamide], for which the IC50 came to 7920 nM.

Turning to `O=C(NC1CCCC1)c1ccc(NC(=O)C2CN(c3cccnn3)C2)cc1` [Example 1005, N-[4-(cyclopentylcarbamoyl)phenyl]-1-(pyridazin-3-yl)azetidine-3-carboxamide], the IC50 was found to be 592 nM.

Consider `O=C(NCc1ccccc1)c1ccc(NC(=O)C2CN(c3cccnn3)C2)cc1` [Example 1006, N-[4-(benzylcarbamoyl)phenyl]-1-(pyridazin-3-yl)azetidine-3-carboxamide], for which the IC50 worked out at 5.36 nM.

Regarding `O=C(Nc1cccc(F)c1)c1ccc(NC(=O)C2CN(c3cccnn3)C2)cc1` [Example 1007, N-{4-[(3-fluorophenyl)carbamoyl]phenyl}-1-(pyridazin-3-yl)azetidine-3-carboxamide], the IC50 is 56.7 nM.

Take `CCCNC(=O)c1ccc(NC(=O)C2CN(c3cccnn3)C2)cc1` [Example 1008, N-[4-(propylcarbamoyl)phenyl]-1-(pyridazin-3-yl)azetidine-3-carboxamide]: the IC50 came out at 299 nM.

Regarding `O=C(Nc1ccc(F)cc1)c1ccc(NC(=O)C2CN(c3cccnn3)C2)cc1` [Example 1009, N-{4-[(4-fluorophenyl)carbamoyl]phenyl}-1-(pyridazin-3-yl)azetidine-3-carboxamide], the IC50 is 81.8 nM.

For `O=C(Nc1ccccc1F)c1ccc(NC(=O)C2CN(c3cccnn3)C2)cc1` [Example 1010, N-{4-[(2-fluorophenyl)carbamoyl]phenyl}-1-(pyridazin-3-yl)azetidine-3-carboxamide], the IC50 stood at 70.9 nM.

Consider `CC1(NC(=O)c2ccc(NC(=O)C3CN(c4cccnn4)C3)cc2)CCC1` [Example 1011, N-{4-[(1-methylcyclobutyl)carbamoyl]phenyl}-1-(pyridazin-3-yl)azetidine-3-carboxamide], for which the IC50 was 113 nM.

Turning to `C=CCNC(=O)c1ccc(NC(=O)C2CN(c3cccnn3)C2)cc1` [Example 1012, N-[4-(prop-2-en-1-ylcarbamoyl)phenyl]-1-(pyridazin-3-yl)azetidine-3-carboxamide], the IC50 was 782 nM.

For `CC(C)(C)C(=O)N1CCC(c2ccc(C(=O)N[C@H]3CCN(c4cccnn4)C3)s2)CC1` [Example 1013, 5-[1-(2,2-dimethylpropanoyl)piperidin-4-yl]-N-[(3S)-1-(pyridazin-3-yl)pyrrolidin-3-yl]thiophene-2-carboxamide], the IC50 came out at 213 nM.

With `CC(C)(C)CC(=O)N1CCC(c2ccc(C(=O)N[C@H]3CCN(c4cccnn4)C3)s2)CC1` [Example 1014, 5-[1-(3,3-dimethylbutanoyl)piperidin-4-yl]-N-[(3S)-1-(pyridazin-3-yl)pyrrolidin-3-yl]thiophene-2-carboxamide], the IC50 turned out to be 219 nM.

In the case of `CCC(C)(C)C(=O)N1CCC(c2ccc(C(=O)N[C@H]3CCN(c4cccnn4)C3)s2)CC1` [Example 1015, 5-[1-(2,2-dimethylbutanoyl)piperidin-4-yl]-N-[(3S)-1-(pyridazin-3-yl)pyrrolidin-3-yl]thiophene-2-carboxamide], the IC50 amounted to 90.1 nM.

`CC1(C(=O)N2CCC(c3ccc(C(=O)N[C@H]4CCN(c5cccnn5)C4)s3)CC2)CC1` [Example 1016, 5-{1-[(1-methylcyclopropyl)carbonyl]piperidin-4-yl}-N-[(3S)-1-(pyridazin-3-yl)pyrrolidin-3-yl]thiophene-2-carboxamide]: the IC50 came out at 212 nM.

Regarding `O=C(N[C@H]1CCN(c2cccnn2)C1)c1ccc(C2CCN(C(=O)CC(F)(F)F)CC2)s1` [Example 1017, N-[(3S)-1-(pyridazin-3-yl)pyrrolidin-3-yl]-5-[1-(3,3,3-trifluoropropanoyl)piperidin-4-yl]thiophene-2-carboxamide], the IC50 was determined as 752 nM.

For `O=C(N[C@H]1CCN(c2cccnn2)C1)c1ccc(C2CCN(C(=O)CC3CC3)CC2)s1` [Example 1018, 5-[1-(cyclopropylacetyl)piperidin-4-yl]-N-[(3S)-1-(pyridazin-3-yl)pyrrolidin-3-yl]thiophene-2-carboxamide], the IC50 was found to be 716 nM.

Take `O=C(N[C@H]1CCN(c2cccnn2)C1)c1ccc(C2CCN(C(=O)CC3CC4CCC3C4)CC2)s1` (stereo partly drawn) [Example 1019, 5-[1-(bicyclo[2.2.1]hept-2-ylacetyl)piperidin-4-yl]-N-[(3S)-1-(pyridazin-3-yl)pyrrolidin-3-yl]thiophene-2-carboxamide]: the IC50 is 2460 nM.
